GI50 and TGI data for 39 compounds are collected here from PubChem BioAssay (NCI).

The structures appear in SMILES notation. Several values for one entry are separate records, joined by “and”; a condition that tells them apart may be missing. Identical values can stand only once.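 These data come from cells grown in 96-well plates and exposed to compound for 48 hours at five concentrations. At the GI50, growth is halved. TGI is the concentration that stops growth completely.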

The test system of the experiment is MDA-MB-468 breast. The experiment can be described thus: growth of human tumour cells (NCI), 48 h.
Regarding `CCN(CC)CCCC(C)Nc1ccnc(/C=C/c2ccc(Cl)cc2)c1` (configuration not stated), the GI50 is 1.45 µM and the TGI worked out at 2.86 µM.

As for `CCOC(=O)c1cc2c(n1Cc1ccccc1OC)-c1oncc1CCC2`, the GI50 is 2.95 µM and the TGI was > 100 µM.

Turning to `COc1cc(/C=C/c2ccnc3ccccc23)cc(OC)c1OC`, the GI50 was 1.19 µM and the TGI was 5.67 µM.

As to `CN1CCN(c2ccc(Nc3nc(NCCCNS(=O)(=O)c4ccc(F)cc4)c4sccc4n3)cc2)CC1`, the GI50 is 10.2 µM and the TGI was determined as 22.6 µM.

Regarding `Nc1nc(N)c(-c2ccc(Cl)c(Cl)c2)c(CP(Cl)(Cl)(Cl)Br)n1`, the GI50 is 7.45 µM and the TGI stood at 36.1 µM.

As to `CC1(C)CN(CCNc2nccc(-c3c(-c4cccc(O)c4)nc4sccn34)n2)S(=O)(=O)N1`, the GI50 is 7.03 µM and the TGI was > 33.2 µM.

For `O=C(Nc1ccc(Cl)cc1)N1CCN(c2ccc3nncn3n2)CC1`, the GI50 was 26.9 µM and the TGI is 99.3 µM.

With `CCCCC[C@H]1C/C=C2/C(=O)C(Cl)=C[C@@H]2C/C=C\CCCC(=O)O1`, the GI50 is 0.357 µM and the TGI came out at 1.04 µM.

For `Nc1no[n+]([O-])c1-c1nnc2c(n1)-c1ccccc1C2=O`, the GI50 was 2.19 µM and the TGI was 5.64 µM.

Turning to `O=c1[nH]c2ccccc2n1C1CCN(CCOc2ccccc2)CC1`, the GI50 was 6.25 µM and the TGI was found to be 57.8 µM.

As for `COc1cccc(-c2nn(-c3ccccc3)cc2-c2ccnc(NCCCNS(=O)(=O)c3ccc(C(F)(F)F)cc3)c2)c1`, the GI50 was 3.11 µM and the TGI was > 100 µM.

With `CC[C@H](CO)Nc1ccc2ncc(C#Cc3cncc(C(=O)Nc4ccc(CN5CCN(C)CC5)c(C(F)(F)F)c4)c3)n2n1`, the GI50 is 0.126 µM and the TGI is 0.376 µM.

For `CC(C)(C)OC(=O)N1Cc2cc3ccccc3nc2C1CO` (configuration not stated), the GI50 is > 100 µM and the TGI is > 100 µM.

`O=C(CC1Sc2ccccc2NC1=O)NNc1ccc(F)cc1` (configuration not stated): the GI50 was > 100 µM and the TGI was > 100 µM.

As to `CC1(C)CC[C@]2(CO)CC[C@]3(C)C(=CC[C@@H]4[C@@]5(C)CCNCC(C)(C)[C@@H]5CC[C@]43C)[C@@H]2C1`, the GI50 is 1.8 µM and the TGI stood at 3.79 µM.

Consider `COc1ccc2nc3ccccc3c(NCc3ccccc3)c2c1`, for which the GI50 is 1.77 µM and the TGI came out at 4.05 µM.

On to `O=C(c1ccc(Nc2nccc(NCCCCNc3ccnc4cc(Cl)ccc34)n2)cc1)N1CCCCC1`, for which the GI50 is 1.47 µM and the TGI came out at 3.47 µM.

As to `C=CCN1C(=O)[C@]2(SC1=S)[C@H](c1cccc(Cl)c1)CN(C)[C@]21C(=O)NC2C=CC(Cl)=C[C@H]21` (some centres not stated), the GI50 was 3.24 µM and the TGI was 14.3 µM.

In the case of `CN(c1ccc(F)cc1)S(=O)(=O)c1ccc(-c2cnc(C3CC3)o2)cc1`, the GI50 was 0.0544 µM and the TGI came to 8.98 µM.

`CC[Si](CC)(CC)OC1[C@@H](O[Si](CC)(CC)CC)[C@@H](CNC(=O)NC)O[C@H]1n1cnc2c(NC(=O)Nc3ccccc3)ncnc21` (some centres not stated): the GI50 is 4.24 µM and the TGI was 57.4 µM.

In the case of `CCC(C(=O)[C@@H](C)[C@@H](O)[C@H](C)[C@@H]1O[C@@H]([C@@H](CC)C(=O)ONC(=O)c2ccccc2)CC[C@@H]1C)[C@H]1O[C@]2(C=CC(=O)[C@]3(CC[C@@](C)([C@H]4CC[C@](O)(CC)[C@H](C)O4)O3)O2)[C@H](C)C[C@@H]1C` (some centres not stated), the GI50 was 0.0992 µM and the TGI was determined as 0.979 µM.

Regarding `OCC1OC(n2cnc3c(NCc4ccco4)ncnc32)C(O)C1O` (configuration not stated), the GI50 is 1.36 µM and the TGI amounted to 3.16 µM.

With `C[C@@H](Oc1cc(-c2cnn(C3CCNCC3)c2)cnc1N)c1c(Cl)cc(F)cc1Cl`, the GI50 is 1.31 µM and the TGI stood at 2.92 µM.

On to `CCN(CC)CCCNc1cc(OC)c(OC)c2cccnc12`, for which the GI50 is 3.85 µM and the TGI was found to be 14.6 µM.

For the compound `NCCCNc1nc2ccccc2c2c(=O)c3cc(F)cc(Cl)c3sc12`, the GI50 is 1.69 µM and the TGI stood at 3.71 µM.

`CCOC(=O)c1cc2c(n1Cc1cc(OC)cc(OC)c1)-c1oncc1CC2`: the GI50 was 0.0364 µM and the TGI stood at 0.268 µM.

Consider `CC(=O)/C=C/c1ccc(N(CCO)Cc2ccc(C(C)(C)C)cc2)cc1`, for which the GI50 was 31.1 µM and the TGI amounted to 127 µM.

For `O=C(CCl)Nc1ccc(Cc2ccc(NC(=O)CCl)cc2)cc1`, the GI50 is 2.03 µM and the TGI was determined as 5.57 µM.

As to `CCOC(=O)c1cc(C(=O)c2cc(OC)c(OC)c(OC)c2)n2ccc(-c3cc[n+](CC(=O)c4cc(OC)c(OC)c(OC)c4)cc3)cc12`, the GI50 is 1.94 µM and the TGI is 3.81 µM.

As to `Cc1nn(-c2ccccc2)c2nc(C)n(-c3ccc(Br)cc3)c(=O)c12`, the GI50 was 0.476 µM and the TGI is 53 µM.

Regarding `COc1cc(NCCC2CCCCN2)c2ncccc2c1OC` (configuration not stated), the GI50 was 2.07 µM and the TGI stood at 4.18 µM.

For `CN(C)C/C=C/C(=O)Nc1cc2c(Nc3cccc(Cl)c3F)ncnc2cc1OCCOC(F)F`, the GI50 was < 0.01 µM.

For the compound `Cc1ccc(NC2=CC(=O)C(=O)c3ccccc32)cc1`, the GI50 was 1.97 µM and the TGI amounted to 5.74 µM.

Consider `C=C1C(=O)O[C@H]2[C@H]1CC/C(COC(=O)/C=C\C(=O)NCc1ccc(Cn3c(=O)sn(-c4ccc(Cl)cc4)c3=O)cc1)=C\CC[C@@]1(C)O[C@@H]21`, for which the GI50 was 0.568 µM and the TGI worked out at 1.37 µM.

Turning to `Cn1cc(-c2nc(-c3cn(C)c4ncccc34)cs2)c2ccccc21`, the GI50 is 0.169 µM and the TGI was found to be 0.719 µM.

In the case of `NC(Cc1c[nH]c2cccc(F)c12)C(=O)O` (configuration not stated), the GI50 is 50.8 µM and 494 µM; the TGI turned out to be 2050 µM.

For `CCC(=C(c1ccc(OCCN2CCCC2)cc1)c1ccc(OCCN2CCCC2)cc1)c1ccc(Cl)cc1`, the GI50 is 0.533 µM and the TGI stood at 1.07 µM.

In the case of `COc1ccc(NC(=O)c2cccc(C3CCc4c(cc(OC)c(OC)c4OC)O3)c2)cc1` (configuration not stated), the GI50 is 2.6 µM and the TGI was > 100 µM.

For `C=C1C(=O)O[C@H]2[C@H]1CC/C(COC(=O)N[C@H](Cc1c[nH]c3ccccc13)C(=O)OC)=C\CC[C@@]1(C)O[C@@H]21`, the GI50 was 1.02 µM and the TGI came to 3.92 µM.
